Earlier results, collected in patent US11865207B2, “Topical pharmaceutical composition for treatment of anal fissures and hemorrhoids” (Ferring B.V., priority 2018, dated 2024).

Tested on: anal fissures
Settings: 2% topical diltiazem in an ointment

COc1ccc([C@@H]2Sc3ccccc3N(CCN(C)C)C(=O)[C@@H]2OC(C)=O)cc1 [diltiazem]
healing rate: 75%
